# Reference: PubChem BioAssay AID328 (DTP/NCI, 2004)
# Where “and” joins values, the source holds several entries; their conditions need not be identical. Equal entries are not always repeated. Inconclusive results and toxic doses are left out.
# System: BDF1 mice, P388 leukemia ip, median survival T/C
# Assay: NCI In Vivo Anticancer Drug Screen. Data for tumor model P388 Leukemia (intraperitoneal) in B6D2F1 (BDF1) mice
# Conditions: endpoint: median survival time, higher = longer survival
# Summary of the method: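 In tumour-bearing mice, survival after compound treatment is set against the vehicle group and given as a quotient.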
# [1] = dose: 25.0 mg/kg/injection, schedule: Q01DX009 (ip), vehicle: saline with Tween-80
# [2] = dose: 50.0 mg/kg/injection, schedule: Q01DX009 (ip), vehicle: saline with Tween-80
# [3] = dose: 100.0 mg/kg/injection, schedule: Q01DX009 (ip), vehicle: saline with Tween-80
# [4] = dose: 200.0 mg/kg/injection, schedule: Q01DX009 (ip), vehicle: saline with Tween-80
# [5] = dose: 100.0 mg/kg/injection, schedule: Q04DX003 (ip), vehicle: saline with Tween-80
# [6] = dose: 200.0 mg/kg/injection, schedule: Q04DX003 (ip), vehicle: saline with Tween-80
# [7] = dose: 400.0 mg/kg/injection, schedule: Q04DX003 (ip), vehicle: saline with Tween-80
# [8] = dose: 100.0 mg/kg/injection, schedule: Q04DX003 (ip), vehicle: Klucel (hydroxypropylcellulose) (HPC)
# [9] = dose: 200.0 mg/kg/injection, schedule: Q04DX003 (ip), vehicle: Klucel (hydroxypropylcellulose) (HPC)
# [10] = dose: 50.0 mg/kg/injection, schedule: Q01DX009 (ip), vehicle: water
# [11] = dose: 100.0 mg/kg/injection, schedule: Q01DX009 (ip), vehicle: water
# [12] = dose: 200.0 mg/kg/injection, schedule: Q01DX009 (ip), vehicle: water
# [13] = dose: 12.5 mg/kg/injection, schedule: Q04DX003 (ip), vehicle: saline with Tween-80
# [14] = dose: 25.0 mg/kg/injection, schedule: Q04DX003 (ip), vehicle: saline with Tween-80
# [15] = dose: 50.0 mg/kg/injection, schedule: Q04DX003 (ip), vehicle: saline with Tween-80
# [16] = dose: 100.0 mg/kg/injection, schedule: Q01DX009 (ip), vehicle: Klucel (hydroxypropylcellulose) (HPC)
# [17] = dose: 200.0 mg/kg/injection, schedule: Q01DX009 (ip), vehicle: Klucel (hydroxypropylcellulose) (HPC)
# [18] = dose: 400.0 mg/kg/injection, schedule: Q01DX009 (ip), vehicle: Klucel (hydroxypropylcellulose) (HPC)
# [19] = dose: 12.5 mg/kg/injection, schedule: Q01DX009 (ip), vehicle: Klucel (hydroxypropylcellulose) (HPC)
smiles,measurement,setting,value
O=S1(=O)C(Cc2ccccc2)CCCN1c1ccccc1 (stereo not drawn),T/C,"dose: 100.0 mg/kg/injection, schedule: Q04DX002 (ip), vehicle: saline with Tween-80",104 % of control
same,T/C,"dose: 200.0 mg/kg/injection, schedule: Q04DX002 (ip), vehicle: saline with Tween-80",104 % of control
same,T/C,"dose: 400.0 mg/kg/injection, schedule: Q04DX002 (ip), vehicle: saline with Tween-80",102 % of control
COc1cc2c(cc1OC)C(c1ccc(N=Cc3ccc(Cl)c(Cl)c3)cc1)N(C(=S)Nc1cc(Cl)ccc1Cl)CC2 (stereo not drawn),T/C,[1],104 % of control
same,T/C,[2],93 % of control and 97 % of control
same,T/C,[3],95 % of control
same,T/C,[4],89 % of control
CCCC(NC(=O)OCc1ccccc1)C(=O)O (stereo not drawn),T/C,[3],105 % of control
same,T/C,[4],105 % of control
COC(OC)c1[nH]c(=S)[nH]c(=O)c1Cc1ccccc1,T/C,[5],104 % of control
same,T/C,[6],112 % of control
same,T/C,[7],112 % of control
CSc1nccc(=O)n1-c1cccc(C(F)(F)F)c1,T/C,[8],107 % of control
same,T/C,[9],107 % of control
OCc1nccn1Cc1ccccc1,T/C,"dose: 12.5 mg/kg/injection, schedule: Q01DX009 (ip), vehicle: water",108 % of control
same,T/C,"dose: 25.0 mg/kg/injection, schedule: Q01DX009 (ip), vehicle: water",99 % of control
same,T/C,[10],101 % of control
same,T/C,[11],108 % of control
same,T/C,[12],101 % of control
same,T/C,"dose: 300.0 mg/kg/injection, schedule: Q01DX009 (ip), vehicle: water",114 % of control
OC(Cc1ccc2ccccc2n1)C(Cl)(Cl)Cl (stereo not drawn),T/C,"dose: 3.12 mg/kg/injection, schedule: Q01DX009 (ip), vehicle: saline with Tween-80",95 % of control
same,T/C,"dose: 6.25 mg/kg/injection, schedule: Q01DX009 (ip), vehicle: saline with Tween-80",100 % of control
same,T/C,"dose: 12.5 mg/kg/injection, schedule: Q01DX009 (ip), vehicle: saline with Tween-80",100 % of control
same,T/C,[13],100 % of control
same,T/C,[1],92 % of control
same,T/C,[14],105 % of control
same,T/C,[2],90 % of control
same,T/C,[15],100 % of control
same,T/C,[5],91 % of control
CCCC(=O)c1ccco1,T/C,[2],101 % of control
COc1ccc(CCO)cc1OC,T/C,[10],97 % of control
same,T/C,[11],100 % of control
same,T/C,"dose: 100.0 mg/kg/injection, schedule: Q04DX003 (ip), vehicle: water",99 % of control
same,T/C,[12],96 % of control
same,T/C,"dose: 200.0 mg/kg/injection, schedule: Q04DX003 (ip), vehicle: water",106 % of control
same,T/C,"dose: 400.0 mg/kg/injection, schedule: Q01DX009 (ip), vehicle: water",96 % of control
NC(=O)N/C=C1\CCCOC1=O,T/C,[15],111 % of control
same,T/C,[5],101 % of control
same,T/C,[6],104 % of control
same,T/C,[7],109 % of control
O=C1C=Cc2cccc3cccc1c23,T/C,"dose: 50.0 mg/kg/injection, schedule: Q04DX003 (ip), vehicle: saline sonified",95 % of control
same,T/C,"dose: 100.0 mg/kg/injection, schedule: Q04DX003 (ip), vehicle: saline sonified",95 % of control
same,T/C,"dose: 200.0 mg/kg/injection, schedule: Q04DX003 (ip), vehicle: saline sonified",91 % of control
OCCN=Cc1ccccc1,T/C,[5],100 % of control
same,T/C,[6],100 % of control
CC(C)(C)C1CC[N-]CC1.CC(C)(C)C1CC[N-]CC1.[Cl][Pt+2]([Cl])([Cl])[Cl],T/C,"dose: 0.78 mg/kg/injection, schedule: Q01DX009 (ip), vehicle: saline",110 % of control
same,T/C,"dose: 1.56 mg/kg/injection, schedule: Q01DX009 (ip), vehicle: saline",115 % of control and 117 % of control
same,T/C,"dose: 3.12 mg/kg/injection, schedule: Q01DX009 (ip), vehicle: saline",100 % of control and 102 % of control and 111 % of control
same,T/C,"dose: 6.25 mg/kg/injection, schedule: Q01DX009 (ip), vehicle: saline",86 % of control and 108 % of control
same,T/C,"dose: 12.5 mg/kg/injection, schedule: Q01DX009 (ip), vehicle: saline",115 % of control
same,T/C,"dose: 25.0 mg/kg/injection, schedule: Q01DX009 (ip), vehicle: saline",91 % of control and 115 % of control
CCOC1=C(C#N)CC2(CC1)c1ccccc1-c1ccccc12,T/C,[5],95 % of control
same,T/C,[6],95 % of control
same,T/C,[7],91 % of control
C[N+](C)(CC(=O)Nc1ccc(Cl)c(Cl)c1)CC(=O)c1ccc(Cl)c(Cl)c1,T/C,"dose: 400.0 mg/kg/injection, schedule: Q04DX003 (ip), vehicle: saline sonified",87 % of control
O=C1O/C(=C2\OCc3ccccc32)c2ccccc21,T/C,[1],100 % of control
same,T/C,[2],98 % of control
same,T/C,[3],98 % of control
same,T/C,[4],96 % of control
COc1cccc(C(=O)O)c1OS(=O)(=O)c1ccccc1,T/C,[16],104 % of control
same,T/C,[8],110 % of control
same,T/C,[17],95 % of control
same,T/C,[9],90 % of control
same,T/C,[18],90 % of control
same,T/C,"dose: 400.0 mg/kg/injection, schedule: Q04DX003 (ip), vehicle: Klucel (hydroxypropylcellulose) (HPC)",105 % of control
CSCSCC(CO)NS(=O)(=O)c1ccc(C)cc1 (stereo not drawn),T/C,[5],100 % of control
same,T/C,[6],100 % of control
same,T/C,[7],100 % of control
CCCCOc1cc(C(=O)NCCN(CC)CC)c2ccccc2n1,T/C,"dose: 6.25 mg/kg/injection, schedule: Q04DX003 (ip), vehicle: saline with Tween-80",100 % of control
same,T/C,[13],109 % of control
same,T/C,[14],109 % of control
C/C(=N\N(C)C(=S)Nc1ccccc1)c1ccccn1,T/C,[2],95 % of control
same,T/C,[3],106 % of control
same,T/C,[4],98 % of control
COC(=O)c1ccc(Cl)c(Cl)c1,T/C,[1],101 % of control
same,T/C,[14],102 % of control
same,T/C,[2],116 % of control
same,T/C,[15],94 % of control and 100 % of control and 108 % of control
same,T/C,[5],97 % of control and 98 % of control and 103 % of control
same,T/C,"dose: 150.0 mg/kg/injection, schedule: Q04DX003 (ip), vehicle: saline with Tween-80",98 % of control
same,T/C,[6],108 % of control and 112 % of control
same,T/C,"dose: 300.0 mg/kg/injection, schedule: Q04DX003 (ip), vehicle: saline with Tween-80",110 % of control
same,T/C,[7],107 % of control
CSc1cc(C(N)=O)c2c(N)nc(SC)nc2n1,T/C,"dose: 25.0 mg/kg/injection, schedule: Q01DX001 (ip), vehicle: saline with Tween-80",111 % of control
same,T/C,"dose: 50.0 mg/kg/injection, schedule: Q01DX001 (ip), vehicle: saline with Tween-80",109 % of control
same,T/C,"dose: 100.0 mg/kg/injection, schedule: Q01DX001 (ip), vehicle: saline with Tween-80",100 % of control and 111 % of control
same,T/C,"dose: 400.0 mg/kg/injection, schedule: Q01DX001 (ip), vehicle: saline with Tween-80",100 % of control
CCC1(O)CC2CN(CCc3c([nH]c4ccccc34)C(C(=O)OC)(c3cc4c(cc3OC)N(C)C3C(O)(C(=O)NCCO)C(O)C5(CC)C=CCN6CCC43C65)C2)C1 (stereo not drawn),T/C,"dose: 500.0 micrograms/kg/injection, schedule: Q04DX003 (ip), vehicle: saline",173 % of control
same,T/C,"dose: 1000.0 micrograms/kg/injection, schedule: Q04DX003 (ip), vehicle: saline",182 % of control
same,T/C,"dose: 2000.0 micrograms/kg/injection, schedule: Q04DX003 (ip), vehicle: saline",219 % of control
same,T/C,"dose: 4000.0 micrograms/kg/injection, schedule: Q04DX003 (ip), vehicle: saline",286 % of control
CC(=N/NC(N)=S)/C(C)=N/NC(N)=S,T/C,[16],100 % of control
same,T/C,[17],100 % of control
same,T/C,[18],100 % of control
CC(/C=N/NC(=[N-])N)=N\N=C(/[NH-])N.[Ni+2],T/C,"dose: 6.25 mg/kg/injection, schedule: Q01DX009 (ip), vehicle: Klucel (hydroxypropylcellulose) (HPC)",97 % of control
same,T/C,[19],97 % of control
N#CC(C#N)c1nc2cccnc2s1,T/C,[5],109 % of control
same,T/C,[6],93 % of control
Cc1cc(C)c(NC(=O)c2ccccc2Cl)c(C)c1,T/C,[5],100 % of control
same,T/C,[6],109 % of control
same,T/C,[7],95 % of control
C1=CC2C3CC(OCCOC4CC5CC4C4CC=CC54)C(C3)C2C1 (stereo not drawn),T/C,[5],115 % of control
same,T/C,[6],115 % of control
same,T/C,[7],120 % of control
N#Cc1c[nH]n2c(=S)ncnc12,T/C,[2],107 % of control
same,T/C,[3],90 % of control
same,T/C,[5],104 % of control
same,T/C,[4],93 % of control
same,T/C,[6],109 % of control
same,T/C,"dose: 300.0 mg/kg/injection, schedule: Q01DX009 (ip), vehicle: saline with Tween-80",99 % of control
CSc1cccc(NC(=O)Nc2onc(C)c2C)c1,T/C,[19],101 % of control
same,T/C,"dose: 25.0 mg/kg/injection, schedule: Q01DX009 (ip), vehicle: Klucel (hydroxypropylcellulose) (HPC)",99 % of control
same,T/C,"dose: 50.0 mg/kg/injection, schedule: Q01DX009 (ip), vehicle: Klucel (hydroxypropylcellulose) (HPC)",101 % of control
